Results: the NIST ThermoML archive (doi:10.1007/s10765-011-0995-x)

Assays:
[1] = xn = mol fraction of the nth substance listed; conditions: 101 kPa, Liquid; for speed of sound: Pulse-echo method
[2] = refractive index (Na D-line) (dimensionless); xn = mol fraction of the nth substance listed; conditions: 101 kPa, Liquid, Standard Abbe refractometry

Cc1ccc(Cl)cc1 [4-chlorotoluene] + CCCCCCCCCCO
Conditions	mass density, [1] [kg/m3]	refractive index, [2]	speed of sound, [1] [m/s]	viscosity, [1] [mPa·s]
298.15 K, x1 = 0.0718	837.82	1.4376	1373.1	9.725
298.15 K, x1 = 0.1353	848.32	1.4405	1366.4	8.154
298.15 K, x1 = 0.1976	859.01	1.4437	1359.4	6.842
298.15 K, x1 = 0.2703	872.09	1.4477	1350.9	5.561
298.15 K, x1 = 0.341	885.46	1.4519	1342.3	4.546
298.15 K, x1 = 0.4103	899.31	1.4566	1333.9	3.733
298.15 K, x1 = 0.482	914.52	1.4618	1325	3.045
298.15 K, x1 = 0.5531	930.57	1.4676	1316.5	2.495
298.15 K, x1 = 0.6234	947.55	1.4738	1308.6	2.058
298.15 K, x1 = 0.7045	968.72	1.4818	1300.2	1.654
298.15 K, x1 = 0.7497	981.35	1.4866	1296.1	1.472
298.15 K, x1 = 0.8196	1002.21	1.4947	1291	1.239
298.15 K, x1 = 0.8907	1025.23	1.5035	1288	1.047
298.15 K, x1 = 0.9556	1048.23	1.5124	1287.5	0.907
298.15 K, x1 = 1	1065.11	1.5188	1289.1	0.828
303.15 K, x1 = 0.0718	834.11	1.4357	1357.3	8.053
303.15 K, x1 = 0.1353	844.43	1.4387	1350.1	6.766
303.15 K, x1 = 0.1976	854.95	1.4418	1342.7	5.705
303.15 K, x1 = 0.2703	867.83	1.4458	1333.7	4.658
303.15 K, x1 = 0.341	881.03	1.4501	1324.7	3.825
303.15 K, x1 = 0.4103	894.71	1.4547	1315.9	3.162
303.15 K, x1 = 0.482	909.75	1.46	1307	2.608
303.15 K, x1 = 0.5531	925.66	1.4657	1298.4	2.157
303.15 K, x1 = 0.6234	942.5	1.4719	1290.5	1.798
303.15 K, x1 = 0.7045	963.53	1.4798	1282.3	1.472
303.15 K, x1 = 0.7497	976.09	1.4846	1278.3	1.325
303.15 K, x1 = 0.8196	996.85	1.4926	1273	1.134
303.15 K, x1 = 0.8907	1019.78	1.5015	1269.5	0.972
303.15 K, x1 = 0.9556	1042.69	1.5104	1269.1	0.85
303.15 K, x1 = 1	1059.51	1.5166	1271	0.784
308.15 K, x1 = 0.0718	830.35	1.4337	1338.2	6.713
308.15 K, x1 = 0.1353	840.48	1.4367	1330.8	5.652
308.15 K, x1 = 0.1976	850.84	1.4398	1323.1	4.769
308.15 K, x1 = 0.2703	863.56	1.4439	1313.8	3.909
308.15 K, x1 = 0.341	876.62	1.4481	1304.8	3.23
308.15 K, x1 = 0.4103	890.19	1.4527	1295.9	2.678
308.15 K, x1 = 0.482	905.12	1.458	1286.9	2.224
308.15 K, x1 = 0.5531	920.91	1.4637	1278.3	1.851
308.15 K, x1 = 0.6234	937.62	1.4698	1270.5	1.558
308.15 K, x1 = 0.7045	958.46	1.4776	1262.5	1.289
308.15 K, x1 = 0.7497	970.92	1.4824	1258.5	1.166
308.15 K, x1 = 0.8196	991.5	1.4902	1253.9	1.008
308.15 K, x1 = 0.8907	1014.28	1.499	1250.7	0.875
308.15 K, x1 = 0.9556	1037.1	1.5078	1251	0.781
308.15 K, x1 = 1	1053.9	1.5138	1253.1	0.73
